Results reported in patent US20260132127A1, “NOVEL SPIRO COMPOUND” (MITSUBISHI TANABE PHARMA CORPORATION, priority 2021, published 2026).

biological target: T1, human TRH-DE (Homo sapiens, UniProt Q9UKU6); experiment: TRH-DE inhibition test (RapidFire MS measurement of product Cyclo (His-Pro)); type: biochemical; details: membrane fraction of Expi 293 cells expressing human TRH-DE; 10 μM TRH substrate; room temperature, 2 hours; 16-point concentration test
T1 construct: expressed in transfected cells; host or cells: Expi 293 cells (transient expression), membrane fraction
T1 sequence (Q9UKU6 1-1069): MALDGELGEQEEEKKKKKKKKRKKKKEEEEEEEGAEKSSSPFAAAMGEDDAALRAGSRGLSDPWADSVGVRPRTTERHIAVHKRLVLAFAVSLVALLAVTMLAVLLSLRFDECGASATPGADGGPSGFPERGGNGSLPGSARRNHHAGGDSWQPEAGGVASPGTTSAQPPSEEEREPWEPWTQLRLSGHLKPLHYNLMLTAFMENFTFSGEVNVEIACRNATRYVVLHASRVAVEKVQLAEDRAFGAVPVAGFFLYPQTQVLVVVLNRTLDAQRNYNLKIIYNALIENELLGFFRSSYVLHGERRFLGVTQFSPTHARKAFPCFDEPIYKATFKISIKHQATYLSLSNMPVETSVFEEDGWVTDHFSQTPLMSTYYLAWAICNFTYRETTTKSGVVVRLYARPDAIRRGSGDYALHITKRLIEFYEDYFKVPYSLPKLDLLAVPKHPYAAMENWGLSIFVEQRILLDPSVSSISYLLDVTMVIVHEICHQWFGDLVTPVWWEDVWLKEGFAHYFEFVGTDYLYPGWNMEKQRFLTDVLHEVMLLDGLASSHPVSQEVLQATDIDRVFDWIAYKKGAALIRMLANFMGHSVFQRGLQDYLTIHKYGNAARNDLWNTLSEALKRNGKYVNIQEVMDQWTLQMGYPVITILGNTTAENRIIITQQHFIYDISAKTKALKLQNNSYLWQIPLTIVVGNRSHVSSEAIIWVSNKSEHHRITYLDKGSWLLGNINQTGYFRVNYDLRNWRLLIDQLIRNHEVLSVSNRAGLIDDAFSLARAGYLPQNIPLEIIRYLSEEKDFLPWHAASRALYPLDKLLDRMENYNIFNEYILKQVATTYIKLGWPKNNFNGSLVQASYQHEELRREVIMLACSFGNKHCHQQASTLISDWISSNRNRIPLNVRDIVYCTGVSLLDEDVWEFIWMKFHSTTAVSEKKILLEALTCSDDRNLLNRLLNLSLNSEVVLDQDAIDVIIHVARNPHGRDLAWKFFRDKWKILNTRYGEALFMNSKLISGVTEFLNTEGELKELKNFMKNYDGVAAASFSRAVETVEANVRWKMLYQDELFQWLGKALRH
In short: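 Membrane fraction from Expi 293 cells transiently expressing human TRH-DE, at 4 μg/ml in phosphate buffer pH 7.4 with 200 μM bacitracin, reacted with compound and 10 μM substrate for 2 h at room temperature. Cyclo(His-Pro) measured by RapidFire MS against an isotope internal standard. IC50 from 16-point curves.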

| IC50 [µM] | Structure (SMILES) |
| --- | --- |
| 0.092 | CC1c2ccccc2C(=O)N1C1CC2(C1)CN(S(=O)(=O)c1ccccc1F)C2 (stereo not shown) [Example 266, 2-[2-(2-fluorophenyl)sulfonyl-2-azaspiro[3.3]heptan-6-yl]-3-methyl-isoindolin-1-one] |
| 0.104 | CC1c2cc(C(F)(F)F)cnc2C(=O)N1C1CC2(C1)CN(S(=O)(=O)c1ccccc1F)C2 (stereo not shown) [Example 290, 6-[2-(2-fluorophenyl)sulfonyl-2-azaspiro[3.3]heptan-6-yl]-5-methyl-3-(trifluoromethyl)-5H-pyrrolo[3,4-b]pyridin-7-one] |
| 0.419 | CC1c2ccncc2C(=O)N1C1CC2(C1)CN(S(=O)(=O)c1ccccc1F)C2 (stereo not shown) [Example 296, 2-[2-(2-fluorophenyl)sulfonyl-2-azaspiro[3.3]heptan-6-yl]-1-methyl-1H-pyrrolo[3,4-c]pyridin-3-one] |
| 0.168 | CC1CC(F)(F)c2ncccc2C(=O)N1C1CC2(C1)CN(S(=O)(=O)c1ccccc1F)C2 (stereo not shown) [Example 300, 9,9-Difluoro-6-[2-(2-fluorophenyl)sulfonyl-2-azaspiro[3.3]heptan-6-yl]-7-methyl-7,8-dihydropyrido[3,2-c]azepin-5-one] |
| 0.047 | CC(=O)N1C[C@@H](C)N(C2CC3(C2)CN(S(=O)(=O)c2ccccc2F)C3)C(=O)c2ncccc21 [Example 302, (3R)-1-acetyl-4-[2-(2-fluorophenyl)sulfonyl-2-azaspiro[3.3]heptan-6-yl]-3-methyl-2,3-dihydropyrido[3,2-e][1,4]diazepin-5-one] |
| 0.082 | CCC(=O)N1C[C@@H](C)N(C2CC3(C2)CN(S(=O)(=O)c2ccccc2F)C3)C(=O)c2ncccc21 [Example 303] |
| 0.062 | CC(C)C(=O)N1C[C@@H](C)N(C2CC3(C2)CN(S(=O)(=O)c2ccccc2F)C3)C(=O)c2ncccc21 [Example 305] |
| 0.285 | COCC(=O)N1C[C@@H](C)N(C2CC3(C2)CN(S(=O)(=O)c2ccccc2F)C3)C(=O)c2ncccc21 [Example 307] |
| 0.655 | C[C@@H]1CN(C(=O)c2ccccc2)c2cccnc2C(=O)N1C1CC2(C1)CN(S(=O)(=O)c1ccccc1F)C2 [Example 308] |
| 0.041 | C[C@@H]1CCn2cnc(C3CC3)c2C(=O)N1C1CC2(C1)CN(S(=O)(=O)c1ccccc1F)C2 [Example 310] |
| 0.002 | Cc1cc2c(cn1)C(=O)N(C1CC3(C1)CN(S(=O)(=O)c1ccccc1F)C3)[C@H](C)CO2 [Example 312] |
| 0.001 | C[C@@H]1COc2cc(C3CC3)ncc2C(=O)N1C1CC2(C1)CN(S(=O)(=O)c1ccccc1F)C2 [Example 313] |
| 0.003 | C[C@@H]1COc2ncc(C3CC3)cc2C(=O)N1C1CC2(C1)CN(S(=O)(=O)c1ccccc1F)C2 [Example 315] |
| 0.003 | Cc1nc2c(cc1F)C(=O)N(C1CC3(C1)CN(S(=O)(=O)c1ccccc1F)C3)[C@H](C)CO2 [Example 317] |
| 0.022 | C[C@@H]1CCn2ncc(C3CC3)c2C(=O)N1C1CC2(C1)CN(S(=O)(=O)c1ccccc1F)C2 [Example 319] |
| 0.074 | C[C@@H]1COc2nn(C)c(C3CC3)c2C(=O)N1C1CC2(C1)CN(S(=O)(=O)c1ccccc1F)C2 [Example 321] |
| 0.017 | C[C@@H]1COc2c(noc2C2CC2)C(=O)N1C1CC2(C1)CN(S(=O)(=O)c1ccccc1F)C2 [Example 325] |
| 0.006 | C[C@@H]1Cn2nc(F)c(C3CC3)c2C(=O)N1C1CC2(C1)CN(S(=O)(=O)c1ccccc1F)C2 [Example 327] |
| 0.067 | Cc1nc(C2CC2)c2n1C[C@@H](C)N(C1CC3(C1)CN(S(=O)(=O)c1ccccc1F)C3)C2=O [Example 329] |
| 0.019 | C[C@@H]1Cn2cc(C3CC3)nc2C(=O)N1C1CC2(C1)CN(S(=O)(=O)c1ccccc1F)C2 [Example 330] |

The remaining lines, values behind:

| Structure (SMILES) | IC50 [µM] |
| --- | --- |
| C[C@@H]1Cn2c(nnc2C2CC2)C(=O)N1C1CC2(C1)CN(S(=O)(=O)c1ccccc1F)C2 [Example 265] | 0.287 |
| CC1(O)c2cc(C(F)(F)F)cnc2C(=O)N1C1CC2(C1)CN(S(=O)(=O)c1ccccc1F)C2 (stereo not shown) [Example 275, 6-[2-(2-fluorophenyl)sulfonyl-2-azaspiro[3.3]heptan-6-yl]-5-hydroxy-5-methyl-3-(trifluoromethyl)pyrrolo[3,4-b]pyridin-7-one] | 0.042 |
| CC1(O)c2ccccc2C(=O)N1C1CC2(C1)CN(S(=O)(=O)c1ccccc1F)C2 (stereo not shown) [Example 283, 2-[2-(2-fluorophenyl)sulfonyl-2-azaspiro[3.3]heptan-6-yl]-3-hydroxy-3-methyl-isoindolin-1-one] | 0.067 |
| C[C@@H]1COc2c(noc2Br)C(=O)N1C1CC2(C1)CN(S(=O)(=O)c1ccccc1F)C2 [Example 297, (6R)-3-bromo-7-[2-(2-fluorophenyl)sulfonyl-2-azaspiro[3.3]heptan-6-yl]-6-methyl-5,6-dihydroisoxazolo[3,4-f][1,4]oxazepin-8-one] | 0.018 |
| C[C@@H]1Cn2c(Br)nc(C3CC3)c2C(=O)N1C1CC2(C1)CN(S(=O)(=O)c1ccccc1F)C2 [Example 298] | 0.025 |
| C[C@@H]1CCn2c(C3CC3)nc(Cl)c2C(=O)N1C1CC2(C1)CN(S(=O)(=O)c1ccccc1F)C2 [Example 299] | 0.033 |
| CC1C=C(F)c2ncccc2C(=O)N1C1CC2(C1)CN(S(=O)(=O)c1ccccc1F)C2 (stereo not shown) [Example 301, 9-fluoro-6-[2-(2-fluorophenyl)sulfonyl-2-azaspiro[3.3]heptan-6-yl]-7-methyl-7H-pyrido[3,2-c]azepin-5-one] | 0.091 |
| CCCC(=O)N1C[C@@H](C)N(C2CC3(C2)CN(S(=O)(=O)c2ccccc2F)C3)C(=O)c2ncccc21 [Example 304] | 1.07 |
| C[C@@H]1CN(C(=O)C2CC2)c2cccnc2C(=O)N1C1CC2(C1)CN(S(=O)(=O)c1ccccc1F)C2 [Example 306] | 0.056 |
| C[C@@H]1CCn2cncc2C(=O)N1C1CC2(C1)CN(S(=O)(=O)c1ccccc1F)C2 [Example 309, (7R)-8-[2-(2-fluorophenyl)sulfonyl-2-azaspiro[3.3]heptan-6-yl]-7-methyl-6,7-dihydro-5H-imidazo[1,5-a][1,4]diazepin-9-one] | 0.032 |
| C[C@@H]1COc2cc(C3CC3)cnc2C(=O)N1C1CC2(C1)CN(S(=O)(=O)c1ccccc1F)C2 [Example 311] | 0.001 |
| Cc1ccc2c(n1)OC[C@@H](C)N(C1CC3(C1)CN(S(=O)(=O)c1ccccc1F)C3)C2=O [Example 314] | 0.009 |
| C[C@@H]1COc2nc(C3CC3)ccc2C(=O)N1C1CC2(C1)CN(S(=O)(=O)c1ccccc1F)C2 [Example 316] | 0.002 |
| Cc1ncc2c(n1)OC[C@@H](C)N(C1CC3(C1)CN(S(=O)(=O)c1ccccc1F)C3)C2=O [Example 318] | 0.009 |
| C[C@@H]1CCn2nc(F)c(C3CC3)c2C(=O)N1C1CC2(C1)CN(S(=O)(=O)c1ccccc1F)C2 [Example 320] | 0.072 |
| C[C@@H]1CCn2c(cnc2C2CC2)C(=O)N1C1CC2(C1)CN(S(=O)(=O)c1ccccc1F)C2 [Example 322] | 0.007 |
| Cc1nc(C2CC2)n2c1C(=O)N(C1CC3(C1)CN(S(=O)(=O)c1ccccc1F)C3)[C@H](C)CC2 [Example 323] | 0.103 |
| Cc1onc2c1OC[C@@H](C)N(C1CC3(C1)CN(S(=O)(=O)c1ccccc1F)C3)C2=O [Example 324] | 0.037 |
| C[C@@H]1Cn2ncc(C3CC3)c2C(=O)N1C1CC2(C1)CN(S(=O)(=O)c1ccccc1F)C2 [Example 326] | 0.004 |
| C[C@@H]1Cn2cnc(C3CC3)c2C(=O)N1C1CC2(C1)CN(S(=O)(=O)c1ccccc1F)C2 [Example 328] | 0.014 |
